Data from ChEMBL document CHEMBL1134349, “AMP deaminase inhibitors. 5. Design, synthesis, and SAR of a highly potent inhibitor series” (J Med Chem, 2001).

Experiments:
[1] = molecular target: T1, AMP deaminase 3 (Homo sapiens, UniProt Q01432); experiment: Inhibition of recombinant human E-type adenylate deaminase
T1 sequence (Q01432 whole entry): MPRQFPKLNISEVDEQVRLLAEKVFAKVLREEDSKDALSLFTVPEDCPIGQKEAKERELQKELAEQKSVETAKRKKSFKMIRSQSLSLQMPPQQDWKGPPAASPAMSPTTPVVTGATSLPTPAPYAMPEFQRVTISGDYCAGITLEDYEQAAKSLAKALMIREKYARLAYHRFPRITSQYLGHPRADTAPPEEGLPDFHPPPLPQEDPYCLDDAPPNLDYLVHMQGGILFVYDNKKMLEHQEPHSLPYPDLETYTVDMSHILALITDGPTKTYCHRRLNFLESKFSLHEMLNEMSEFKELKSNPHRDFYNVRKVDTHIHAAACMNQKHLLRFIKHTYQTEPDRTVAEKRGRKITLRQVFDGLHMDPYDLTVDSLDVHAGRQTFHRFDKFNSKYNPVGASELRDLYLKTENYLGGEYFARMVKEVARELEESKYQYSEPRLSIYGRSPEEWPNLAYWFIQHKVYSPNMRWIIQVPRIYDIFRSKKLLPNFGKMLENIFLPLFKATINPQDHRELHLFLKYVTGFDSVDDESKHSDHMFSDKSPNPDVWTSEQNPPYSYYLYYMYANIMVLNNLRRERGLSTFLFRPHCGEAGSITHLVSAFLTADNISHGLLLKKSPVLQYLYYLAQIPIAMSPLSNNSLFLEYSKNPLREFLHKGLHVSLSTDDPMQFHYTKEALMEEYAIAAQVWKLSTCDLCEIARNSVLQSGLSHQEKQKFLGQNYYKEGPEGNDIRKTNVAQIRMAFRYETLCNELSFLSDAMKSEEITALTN

[2] = molecular target: T2, Adenosine deaminase (Bos taurus, UniProt P56658); experiment: Inhibition of Calf intestinal adenosine deaminase (ADA).
T2 sequence (P56658 whole entry): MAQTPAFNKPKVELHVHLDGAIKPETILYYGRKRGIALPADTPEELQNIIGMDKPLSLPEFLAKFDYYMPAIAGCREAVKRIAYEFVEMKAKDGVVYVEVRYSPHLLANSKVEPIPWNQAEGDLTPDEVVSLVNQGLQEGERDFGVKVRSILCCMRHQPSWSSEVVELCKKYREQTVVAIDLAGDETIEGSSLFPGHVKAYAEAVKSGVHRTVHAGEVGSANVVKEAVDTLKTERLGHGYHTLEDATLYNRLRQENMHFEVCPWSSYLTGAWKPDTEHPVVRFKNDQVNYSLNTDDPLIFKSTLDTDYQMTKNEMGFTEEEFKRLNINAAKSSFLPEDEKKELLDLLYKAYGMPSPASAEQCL

Row | SMILES | Ki [1] | Ki [2]
1 | CCOC(=O)c1c(Cl)c2c(c(CCn3cnc4c3NC=NCC4O)c1Cl)CCCC2 (configuration not stated) | 0.5 µM | > 7.5 µM
2 | O=C(O)c1cc(CCn2cnc3c2N=CNCC3O)c2cc(Br)ccc2c1 (configuration not stated) | 0.96 µM | > 7.5 µM
3 | CCOC(=O)c1cc(CCn2cnc3c2N=CNCC3O)c2cccc(C(F)(F)F)c2c1 (configuration not stated) | 35 µM | 2.7 µM
4 | CCOC(=O)c1cc2c(c(CCn3cnc4c3N=CNCC4O)c1)CCCC2 (configuration not stated) | 1.3 µM | 3.4 µM
5 | O=C(O)c1cc(CCn2cnc3c2N=CNCC3O)c2cccc(C(F)(F)F)c2c1 (configuration not stated) | 0.22 µM | > 7.5 µM
6 | O=C(O)c1cc(CCn2cnc3c2N=CNCC3O)c2c(c1OCc1ccccc1)CCCC2 (configuration not stated) | 0.009 µM | > 7.5 µM
7 | CCOC(=O)c1cc(CCn2cnc3c2NC=NCC3O)c2c(c1Br)CCCC2 (configuration not stated) | 1 µM | 0.53 µM
8 | O=C(OCc1ccccc1)c1cc2c(c(CCn3cnc4c3N=CNCC4O)c1)CCCC2 (configuration not stated) | 5 µM | 0.72 µM
9 | COc1c(C(=O)O)cc2c(c1CCn1cnc3c1NC=NCC3O)CCCC2 (configuration not stated) | 0.04 µM | > 7.5 µM
10 | CCOC(=O)c1cc(CCn2cnc3c2NC=NCC3O)c2c(c1OC)CCCC2 (configuration not stated) | 2.3 µM | 3.7 µM
11 | O=C(O)c1cc2c(c(CCn3cnc4c3NC=NCC4O)c1)CCCC2 (configuration not stated) | 0.015 µM | > 7.5 µM
12 | COC(=O)c1cc(CCn2cnc3c2NC=NCC3O)c2ccccc2c1 (configuration not stated) | 1.8 µM | > 7.5 µM
13 | CC(C)Oc1c(C(=O)O)cc(CCn2cnc3c2N=CNCC3O)c2c1CCCC2 (configuration not stated) | 0.09 µM | > 7.5 µM
14 | CCOC(=O)c1cc(CCn2cnc3c2NC=NCC3O)c2c(c1OCc1ccccc1)CCCC2 (configuration not stated) | 0.3 µM | > 7.5 µM
15 | COc1c(C(=O)O)cc(CCn2cnc3c2NC=NCC3O)c2c1CCCC2 (configuration not stated) | 0.03 µM | > 7.5 µM
16 | CCOC(=O)c1cc2c(c(CCn3cnc4c3N=CNCC4O)c1OC)CCCC2 (configuration not stated) | 2.4 µM | > 7.5 µM
17 | O=C(O)c1c(Cl)c2c(c(CCn3cnc4c3N=CNCC4O)c1Cl)CCCC2 (configuration not stated) | 0.05 µM | > 7.5 µM
18 | O=C(O)c1cc(CCn2cnc3c2N=CNCC3O)c2c(c1Br)CCCC2 (configuration not stated) | 0.002 µM | > 7.5 µM
19 | O=C(O)c1cc(CCn2cnc3c2NC=NCC3O)c2ccccc2c1 (configuration not stated) | 0.02 µM | > 1000 µM
20 | CCOC(=O)c1cc(CCn2cnc3c2NC=NCC3O)c2c(c1OC(C)C)CCCC2 (configuration not stated) | 3.8 µM | > 7.5 µM
21 | CCOC(=O)c1cc(CCn2cnc3c2N=CNCC3O)c2cc(Br)ccc2c1 (configuration not stated) | 14 µM | 4.4 µM
22 | O=C(OCc1ccccc1)c1c(Cl)c2c(c(CCn3cnc4c3NC=NCC4O)c1Cl)CCCC2 (configuration not stated) | 0.3 µM | > 7.5 µM
23 | O=C(O)c1cccc(CCn2cnc3c2N=CNCC3O)c1 (configuration not stated) | 0.5 µM | 
24 | O=C(O)C(CCCCn1cnc2c1NC=NCC2O)Cc1ccccc1 (configuration not stated) | 0.41 µM | 
25 | OC[C@H]1O[C@@H](n2cnc3c2N=CNC[C@H]3O)[C@H](O)[C@@H]1O [COFORMYCIN] | 3 µM | 
